Test results as given in US20230116602A1, “MCL1 INHIBITORS AND USES THEREOF” (California Institute of Technology, priority 2019, published 2023).

Experiments:
MCL1 = MCL1 (Homo sapiens, UniProt Q07820); assay: MCL1 affinity assay (competition binding, qPCR readout); conditions: recombinant MCL1, 11-point 3-fold dilution series
Procedure: Recombinant MCL1, BCL2 and BCXL proteins were prepared in either an E. coli host derived from the BL21 strain or in HEK-293 cells. The recombinant proteins were subsequently tagged with DNA for qPCR detection. Streptavidin-coated magnetic beads were treated for 30 minutes at room temperature with the respective biotinylated peptide ligands for each recombinant protein to generate affinity resins for the assays. The liganded beads were blocked with excess biotin and washed with blocking buffer (SeaBlock (Pierce), 1% BSA, 0.05% Tween 20, 1 mM DTT) to remove unbound ligand and to reduce nonspecific binding. Binding reactions were assembled by combining recombinant protein, liganded affinity beads, and test compounds in 1× binding buffer (20% SeaBlock, 0.17×PBS, 0.05% Tween 20, 6 mM DTT). Test compounds were prepared as 111X stocks in 100% DMSO. The compounds were then diluted directly into the assays such that the final concentration of DMSO was 0.9%. The assay plates were incubated at room temperature with shaking for 1 hour and the affinity beads were washed with wash buffer (1×PBS, 0.05% Tween 20). The beads were then re-suspended in elution buffer (1×PBS, 0.05% Tween 20, 0.5 μM non-biotinylated affinity ligand) and incubated at room temperature with shaking for 30 minutes. The recombinant protein concentration in the eluates was measured by qPCR. Kds were determined using an 11-point 3-fold compound dilution series with three DMSO control points.

[1] = tested on: drug-resistant cell lines of Table 3; assay: Cell line growth retardation assay, resistant cohort; format: cell-based, Human; conditions: Homo sapiens, 144 h; arithmetic mean of IC50s over the resistant cohort of Table 3, 6 days growth; read-out: AvgRes IC50
Procedure: (§1) Cells were seeded at densities of 1,000-5,000 cells per well in 48-well tissue culture plates. After a 24 h rest period, cells were treated with compound at 10 μM, 1 μM, […], 0.08 μM, 0.016 μM, and 0.0032 μM. A group of cells were treated with the vehicle in which the compound was prepared and served as a control. Prior to treatment, cells were counted and this count was used as a baseline for the calculation of growth inhibition. The cells were grown in the presence of compounds for 6 days and were counted on day 6. All cell counting was performed using a Synentec Cellavista plate imager. Growth inhibition was calculated as a ratio of cell population doublings in the presence of compound versus the absence of compound. […] IC50 values for each compound were calculated by fitting curves to data points from each dose-response assay using the Proc NLIN function in SAS for Windows version 9.2 (SAS Institute, Inc.).
(§2) Human cancer cell lines were grouped as “sensitive” or “resistant” to MCL1 inhibition based on whether their growth was retarded by AMG-176 (i.e., (1′S,11R,12S,14E,16S,16aR,18aR)-6′-Chloro-3′,4′,12,13,16,16a,17,18,18a,19-decahydro-16-methoxy-11,12-dimethyl-,Spiro[5,7-etheno-1H,11H-cyclobut[i][1,4]oxazepino[3,4-f][1,2,7]thiadiazacyclohexadecine-2(3H),1′(2′H)-naphthalen]-8(9H)-one 10,10-dioxide) or MIK665 (i.e., (R)-2-((5-(3-chloro-2-methyl-4-(2-(4-methylpiperazin-1-yl)ethoxy)phenyl)-6-(4-fluorophenyl)thieno[2,3-d]pyrimidin-4-yl)oxy)-3-(2-((2-(2-methoxyphenyl)pyrimidin-4-yl)methoxy)phenyl)propanoic acid) (data not shown; see Table 3). These sensitive and resistant cohorts were interrogated for response to each compound, and IC50S were calculated for each cell line using the same technique described above. Average IC50S for the sensitive (“AvgSen IC50”) and resistant (“AvgRes IC50”) cohorts were calculated as arithmetic means of the group, and fold differences (“Fold Diff”) between the resistant and sensitive cohorts were calculated by diving the average IC50 for the resistant cohort by the average IC50 for the sensitive cohort. “A” represents an IC50 of 1 μM or less, “B” represents an IC50 of greater than 1 μM to 5 μM, “C” represents an IC50 of greater than 5 μM, “+” represents a fold difference of 10 or more, and “−” represents a fold difference less than 10.

[2] = tested on: drug-sensitive cell lines of Table 3; assay: Cell line growth retardation assay, sensitive cohort; format: cell-based, Human; conditions: for IC50: Homo sapiens, 144 h, arithmetic mean of IC50s over the sensitive cohort of Table 3, 6 days growth, read-out: AvgSen IC50; for Fold Diff: average IC50 of resistant cohort divided by average IC50 of sensitive cohort
Procedure: as §1, §2

MCL1, sequence (Q07820 whole entry): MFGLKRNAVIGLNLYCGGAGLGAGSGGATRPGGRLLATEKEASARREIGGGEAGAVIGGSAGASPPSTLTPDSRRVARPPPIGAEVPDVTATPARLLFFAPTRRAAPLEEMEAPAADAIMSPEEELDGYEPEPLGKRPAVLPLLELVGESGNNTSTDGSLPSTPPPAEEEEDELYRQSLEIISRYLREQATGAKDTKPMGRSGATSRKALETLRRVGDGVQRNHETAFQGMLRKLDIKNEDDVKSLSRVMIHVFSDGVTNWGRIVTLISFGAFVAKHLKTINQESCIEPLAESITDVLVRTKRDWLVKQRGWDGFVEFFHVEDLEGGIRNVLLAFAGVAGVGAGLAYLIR

| SMILES | Kd (MCL1) [µM] | IC50 [1] [µM] | IC50 [2] [µM] | Fold Diff [2] |
| --- | --- | --- | --- | --- |
| COc1cccc(-c2ncc3snc(O[C@H](Cc4ccccc4OCc4ccnc(N5CCCC(C)(C)C5)n4)C(=O)O)c3c2-c2ccc(OCCN3CCN(C)CC3)c(Cl)c2C)c1 (atropisomer, axis not shown) [Compound 62] | 0.501 to 1.5 | > 5 | 1 to 5 | − (“−” represents a fold difference less than 10) |
| COc1ccc(F)cc1-c1nccc(COc2ccccc2C[C@@H](Oc2nsc3cnc(C4CCC4)c(-c4ccc(OCCN5CCN(C)CC5)c(Cl)c4C)c23)C(=O)O)n1 (atropisomer, axis not shown) [Compound 73] | ≤ 0.1 | > 5 | ≤ 1 | + (“+” represents a fold difference of 10 or more) |
| Cc1cc(-c2nccc(COc3ccccc3C[C@@H](Oc3nsc4cnc(C5CCC5)c(-c5ccc(OCCN6CCN(C)CC6)c(Cl)c5C)c34)C(=O)O)n2)ccc1S(=O)(=O)N1CCCC1 (atropisomer, axis not shown) [Compound 115] | 0.101 to 0.5 | > 5 | 1 to 5 | − (“−” represents a fold difference less than 10) |
| Cc1c(-c2cc(-c3nccc4cc(Cl)ccc34)cc3snc(O[C@H](Cc4ccccc4OCc4ccnn4CC(F)(F)F)C(=O)O)c23)ccc(OCCN2CCN(C)CC2)c1Cl [Compound 95] | > 1.5 | > 5 | > 5 | − (“−” represents a fold difference less than 10) |
| COc1cccc(-c2ncc3snc(O[C@H](Cc4ccccc4OCc4ccnc(-c5ccccc5OC)n4)C(=O)O)c3c2-c2ccc(OCC3CCCN3C)c(Cl)c2C)c1 (stereo partly shown) [Compound 48] |  | > 5 | ≤ 1 | + (“+” represents a fold difference of 10 or more) |
| Cc1c(-c2c(C3CCC3)ncc3snc(O[C@H](Cc4ccccc4OCc4ccnc(-c5ccc(C(=O)N6CCC6)cc5)n4)C(=O)O)c23)ccc(OCCN2CCN(C)CC2)c1Cl (atropisomer, axis not shown) [Compound 122] |  | > 5 | ≤ 1 | + (“+” represents a fold difference of 10 or more) |
| COc1ccccc1-c1nccc(COc2ccccc2C[C@@H](Oc2nsc3cnc(C4CCC4)c(-c4ccc(OCCN5CCN(C)CC5)c(Cl)c4C)c23)C(=O)CCc2oc(=O)oc2C)n1 (atropisomer, axis not shown) [Compound 120] |  | > 5 | ≤ 1 | + (“+” represents a fold difference of 10 or more) |
| Cc1c(-c2c(-c3ccc4sccc4c3)ncc3snc(O[C@H](Cc4ccccc4OCc4ccnn4CC(F)(F)F)C(=O)O)c23)ccc(OCCN2CCN(C)CC2)c1Cl (atropisomer, axis not shown) [Compound 8] | > 1.5 |  |  |  |
| Cc1c(-c2c(C3CCC3)ncc3snc(O[C@H](Cc4ccccc4OCc4ccnc(-c5ccc(N6CCOCC6)cc5)n4)C(=O)O)c23)ccc(OCCN2CCN(C)CC2)c1Cl (atropisomer, axis not shown) [Compound 123] |  | > 5 | ≤ 1 | + (“+” represents a fold difference of 10 or more) |
| Cc1c(-c2c(C3CCC3)ncc3snc(O[C@H](Cc4ccccc4OCc4ccnc(-c5cccc(-c6ccn(C)n6)c5)n4)C(=O)O)c23)ccc(OCCN2CCN(C)CC2)c1Cl (atropisomer, axis not shown) [Compound 121] |  | > 5 | ≤ 1 | + (“+” represents a fold difference of 10 or more) |

More lines, main results first:

| Kd (MCL1) [µM] | SMILES | IC50 [1] [µM] | IC50 [2] [µM] | Fold Diff [2] |
| --- | --- | --- | --- | --- |
| ≤ 0.1 | COc1ccccc1-c1nccc(COc2ccccc2C[C@@H](Oc2nsc3cnc(C4CCC4)c(-c4ccc(OC)c(Cl)c4C)c23)C(=O)O)n1 (atropisomer, axis not shown) [Compound 107] | > 5 | > 5 | − (“−” represents a fold difference less than 10) |
| ≤ 0.1 | COCc1ccccc1-c1nccc(COc2ccccc2C[C@@H](Oc2nsc3cnc(-c4cccc(OC)c4)c(-c4ccc(OCCN5CCN(C)CC5)c(Cl)c4C)c23)C(=O)O)n1 (atropisomer, axis not shown) [Compound 65] | > 5 | ≤ 1 | + (“+” represents a fold difference of 10 or more) |
| > 1.5 | Cn1nc(-c2cc(CC3CCC3)c3c(O[C@H](Cc4ccccc4OCc4ccnn4CC(F)(F)F)C(=O)O)nsc3c2)c2ccc(Cl)cc21 [Compound 96] | > 5 | > 5 | − (“−” represents a fold difference less than 10) |
| > 1.5 | Cc1c(-c2cc(-c3nn(C)c4cc(Cl)ccc34)cc3snc(O[C@H](Cc4ccccc4OCc4ccnn4CC(F)(F)F)C(=O)O)c23)ccc(OCCN2CCN(C)CC2)c1Cl [Compound 94] | > 5 | > 5 | − (“−” represents a fold difference less than 10) |
| ≤ 0.1 | COc1cccc(-c2ncc3snc(O[C@H](Cc4ccccc4OCc4ccnc(OCC(F)F)n4)C(=O)O)c3c2-c2ccc(OCCN3CCN(C)CC3)c(Cl)c2C)c1 [Compound 58] | > 5 | ≤ 1 | + (“+” represents a fold difference of 10 or more) |
| ≤ 0.1 | Cc1c(-c2c(C3CCC3)ncc3snc(O[C@H](Cc4ccccc4OCc4ccnc(C5CCC(F)(F)CC5)n4)C(=O)O)c23)ccc(OCCN2CCN(C)CC2)c1Cl (atropisomer, axis not shown) [Compound 110] | > 5 | ≤ 1 | + (“+” represents a fold difference of 10 or more) |
| 0.101 to 0.5 | COc1cc(-c2ncc3snc(O[C@H](Cc4ccccc4OCc4ccnc(-c5ccccc5OC)n4)C(=O)O)c3c2-c2ccc(OCCN3CCN(C)CC3)c(Cl)c2C)ccc1F (atropisomer, axis not shown) [Compound 37] | > 5 | > 5 | − (“−” represents a fold difference less than 10) |
| ≤ 0.1 | Cc1c(-c2c(C3CCC3)ncc3snc(O[C@H](Cc4ccccc4OCc4ccnc(-c5cccc(N6CCOCC6)c5)n4)C(=O)O)c23)ccc(OCCN2CCN(C)CC2)c1Cl (atropisomer, axis not shown) [Compound 112] | > 5 | ≤ 1 | + (“+” represents a fold difference of 10 or more) |
| ≤ 0.1 | COc1ccccc1-c1nccc(COc2ccccc2C[C@@H](Oc2nsc3cnc(-c4ccc(F)c(Cl)c4)c(-c4ccc(OCCN5CCN(C)CC5)c(Cl)c4C)c23)C(=O)O)n1 (atropisomer, axis not shown) [Compound 88] | > 5 | ≤ 1 | + (“+” represents a fold difference of 10 or more) |
| ≤ 0.1 | COc1ccccc1-c1nccc(COc2ccccc2C[C@@H](Oc2nsc3cnc(-c4cccc(F)c4)c(-c4ccc(OCCC5CCN(C)CC5)c(Cl)c4C)c23)C(=O)O)n1 (atropisomer, axis not shown) [Compound 102] | > 5 | 1 to 5 | − (“−” represents a fold difference less than 10) |
| > 1.5 | CCOC(=O)[C@@H](Cc1ccccc1OCc1ccnc(-c2ccccc2OC)n1)Oc1nsc2cnc(C3CCC3)c(-c3ccc(OCCN4CCN(C)CC4)c(Cl)c3C)c12 [Compound 103] |  |  |  |
